Test results reported in patent US20130338152A1, “FLUOROPHENYL BICYCLIC HETEROARYL COMPOUNDS” (IRM LLC, priority 2011, published 2013).
Like-named read-outs stand apart in the source and are kept apart here.

How the values were obtained:
[1] = molecular target: T1, IGF1R (Homo sapiens, UniProt P08069); experiment: Enzymatic kinase assay (filter-binding/flashplate); format: biochemical
Experimental: (§1) Two methods were used to analyze phosphorylated peptides and proteins produced by the listed tyrosine and serine/threonine-specific protein kinases: either using a filter-binding assay (FB), or using a flashplate assay (FP). The activities of protein kinases were assayed in the presence or absence of inhibitors, by measuring the incorporation of ^33P from [γ^33P]ATP into appropriate substrates.
(§2) 96-well polypropylene microplates were used to assay the activity in the FB mode. To determine the inhibitory activity of compounds 10 μL of compound dilutions were pipetted into 96-well plates followed by the addition of 10 μL of assay mix and 10 μL of individual enzymes. With the addition of the enzymes the reactions were initiated and continued at RT. […] The final concentration of DMSO in the enzyme assays was 1%.
(§3) Flashplates are available as 96-well standard (STFPs) or as streptavidin-(SAFPs) or nickel coated FPs (NiFPs) from Perkin Elmer. STFPs are 96-well polystyrene microplates in which the interior of each well is permanently coated with a thin layer of polystyrene-based scintillant. Streptavidin flashplates (SAFP) are 96 or 384-well STFPs coated with streptavidin. SAFPs are suitable for a wide variety of assay applications which utilize biotinylated capture molecules. NiFP or nickel chelate flashplates are 96- or 384-well STFPs coated with nickel chelate. NiFPs are designed for in-plate, radiometric assays which utilize 4- or 6-histidine tagged proteins and peptides.
(§4) All kinase assays were performed in STFPs for 60 mins at RT and stopped with 50 μL of 0.5% H3PO4 except PKA which were carried out in polypropylene 96- and 384-well plates, respectively. […] All wells were then washed three times with 200 μL of 0.5% H3PO4 and the plates were dried at room temperature. The plates were sealed and counted in a microplate scintillation counter (TopCount NXT, TopCount NXT HTS). The final concentration of DMSO in the enzyme assays was 1%.

[2] = molecular target: InsR (Homo sapiens, UniProt P06213); experiment: Enzymatic kinase assay (filter-binding/flashplate); format: biochemical
Experimental: as §1, §2, §3, §4

[3] = molecular target: PDGFRa (Homo sapiens, UniProt P16234); experiment: Enzymatic kinase assay; format: biochemical
Procedure, shortened: (§5)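 Inhibition is measured as reduced ^33P labelling of substrate by each kinase, with phosphorylated product captured on filters or in scintillant-coated plates. Incubation runs at room temperature for 60 mins in 1% DMSO.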

[4] = molecular target: LCK (Homo sapiens, UniProt P06239); experiment: Enzymatic kinase assay; format: biochemical
Procedure, shortened: as §5

[5] = molecular target: COT1 (Homo sapiens, UniProt P41279); experiment: Enzymatic kinase assay; format: biochemical
Procedure, shortened: as §5

[6] = molecular target: KDR (Homo sapiens, UniProt P35968); experiment: Enzymatic kinase assay; format: biochemical
Procedure, shortened: as §5

[7] = molecular target: RET (Homo sapiens, UniProt P07949); experiment: Enzymatic kinase assay; format: biochemical
Procedure, shortened: as §5

[8] = molecular target: TYK2 (Homo sapiens, UniProt P29597); experiment: Enzymatic kinase assay; format: biochemical
Procedure, shortened: as §5

[9] = molecular target: P38a (Homo sapiens, UniProt Q16539); experiment: Enzymatic kinase assay; format: biochemical
Procedure, shortened: as §5

[10] = molecular target: MK2 (Homo sapiens, UniProt P49137); experiment: Enzymatic kinase assay; format: biochemical
Procedure, shortened: as §5

[11] = molecular target: JAK2 (Homo sapiens, UniProt O60674); experiment: Enzymatic kinase assay; format: biochemical
Procedure, shortened: as §5

[12] = molecular target: FGFR-4 (Homo sapiens, UniProt P22455); experiment: Enzymatic kinase assay; format: biochemical
Procedure, shortened: as §5

[13] = molecular target: cABLT315 (Homo sapiens, UniProt P00519, T315I); experiment: Enzymatic kinase assay; format: biochemical
Procedure, shortened: as §5

[14] = molecular target: cKIT (Homo sapiens, UniProt P10721); experiment: Enzymatic kinase assay; format: biochemical
Procedure, shortened: as §5

[15] = molecular target: ERK2 (Homo sapiens, UniProt P28482); experiment: Enzymatic kinase assay; format: biochemical
Procedure, shortened: as §5

[16] = molecular target: CDK2A (Homo sapiens, UniProt P24941); experiment: Enzymatic kinase assay; format: biochemical
Procedure, shortened: as §5

[17] = molecular target: cMET (Homo sapiens, UniProt P08581); experiment: Enzymatic kinase assay; format: biochemical
Procedure, shortened: as §5

[18] = molecular target: EphA4 (Homo sapiens, UniProt P54764); experiment: Enzymatic kinase assay; format: biochemical
Procedure, shortened: as §5

[19] = molecular target: HER2 (Homo sapiens, UniProt P04626); experiment: Enzymatic kinase assay; format: biochemical
Procedure, shortened: as §5

[20] = molecular target: T2, Aurora A (Homo sapiens, UniProt O14965); experiment: Enzymatic kinase assay; format: biochemical
T2 sequence (O14965 1-403): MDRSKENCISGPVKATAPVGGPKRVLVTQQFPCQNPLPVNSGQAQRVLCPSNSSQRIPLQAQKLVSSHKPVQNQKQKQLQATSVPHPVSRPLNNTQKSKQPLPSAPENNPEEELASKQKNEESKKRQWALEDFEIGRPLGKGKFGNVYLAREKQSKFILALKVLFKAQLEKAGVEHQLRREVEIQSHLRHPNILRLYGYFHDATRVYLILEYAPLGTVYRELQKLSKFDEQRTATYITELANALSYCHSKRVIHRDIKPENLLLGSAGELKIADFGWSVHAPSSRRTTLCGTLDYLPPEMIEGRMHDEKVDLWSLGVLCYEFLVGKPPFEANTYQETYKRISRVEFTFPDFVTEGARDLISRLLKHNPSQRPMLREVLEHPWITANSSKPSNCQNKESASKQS
Procedure, shortened: as §5

[21] = molecular target: GSK3beta (Homo sapiens, UniProt P49841); experiment: Enzymatic kinase assay; format: biochemical
Procedure, shortened: as §5

[22] = molecular target: T1, IGF1R; experiment: Cellular IGF-1R assay: inhibition of IGF1R phosphorylation in Hek293 cells, capture ELISA (MSD); format: cell-based; parameters: expressed in transfected cells; host or cells: Hek293 (Hek293-IGF1R); conditions: IGF-triggered receptor phosphorylation
[23] = molecular target: hERG channels (Homo sapiens, UniProt Q12809); experiment: biochemical
[24] = molecular target: C-Abl (Homo sapiens, UniProt P00519); experiment: Kinase assay of known compound and phenol metabolite X; format: biochemical; conditions: metabolite comparison table
[25] = molecular target: c-src (Homo sapiens, UniProt P12931); experiment: as above; format: biochemical; conditions: metabolite comparison table
[26] = molecular target: EphB4 (Homo sapiens, UniProt P54760); experiment: as above; format: biochemical; conditions: metabolite comparison table
[27] = enzymatic, read-out: InsR IC50 values
[28] = enzymatic, read-out: RET IC50 values (converted)

RET, sequence (P07949 29-1114, species assumed): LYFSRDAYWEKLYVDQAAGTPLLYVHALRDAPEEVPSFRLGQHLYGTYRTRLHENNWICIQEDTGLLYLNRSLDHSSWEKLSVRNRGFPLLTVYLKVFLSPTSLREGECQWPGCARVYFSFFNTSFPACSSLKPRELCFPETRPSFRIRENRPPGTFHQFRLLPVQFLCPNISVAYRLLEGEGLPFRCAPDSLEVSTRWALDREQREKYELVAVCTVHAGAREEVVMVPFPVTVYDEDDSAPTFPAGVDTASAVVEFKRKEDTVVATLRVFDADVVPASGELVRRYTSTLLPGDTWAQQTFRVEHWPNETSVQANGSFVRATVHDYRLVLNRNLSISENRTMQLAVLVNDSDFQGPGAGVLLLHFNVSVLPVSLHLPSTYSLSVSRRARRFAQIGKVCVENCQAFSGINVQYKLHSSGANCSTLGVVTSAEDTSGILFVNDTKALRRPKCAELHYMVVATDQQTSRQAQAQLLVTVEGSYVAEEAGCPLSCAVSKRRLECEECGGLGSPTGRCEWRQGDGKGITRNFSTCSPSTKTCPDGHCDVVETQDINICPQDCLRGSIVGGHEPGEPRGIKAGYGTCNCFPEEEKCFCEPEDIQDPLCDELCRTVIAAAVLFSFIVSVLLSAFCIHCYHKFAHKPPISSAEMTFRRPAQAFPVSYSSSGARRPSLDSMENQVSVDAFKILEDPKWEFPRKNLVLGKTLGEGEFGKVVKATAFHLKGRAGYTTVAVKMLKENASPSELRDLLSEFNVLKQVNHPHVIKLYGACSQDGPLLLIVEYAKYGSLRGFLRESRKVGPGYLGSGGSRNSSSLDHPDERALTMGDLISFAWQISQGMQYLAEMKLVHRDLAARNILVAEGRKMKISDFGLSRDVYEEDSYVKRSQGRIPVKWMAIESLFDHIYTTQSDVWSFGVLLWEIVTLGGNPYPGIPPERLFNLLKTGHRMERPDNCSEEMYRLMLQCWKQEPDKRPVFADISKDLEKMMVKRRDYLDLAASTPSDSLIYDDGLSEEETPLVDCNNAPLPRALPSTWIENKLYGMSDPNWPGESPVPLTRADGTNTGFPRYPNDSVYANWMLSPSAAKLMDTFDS
T1 sequence (P08069 31-1367): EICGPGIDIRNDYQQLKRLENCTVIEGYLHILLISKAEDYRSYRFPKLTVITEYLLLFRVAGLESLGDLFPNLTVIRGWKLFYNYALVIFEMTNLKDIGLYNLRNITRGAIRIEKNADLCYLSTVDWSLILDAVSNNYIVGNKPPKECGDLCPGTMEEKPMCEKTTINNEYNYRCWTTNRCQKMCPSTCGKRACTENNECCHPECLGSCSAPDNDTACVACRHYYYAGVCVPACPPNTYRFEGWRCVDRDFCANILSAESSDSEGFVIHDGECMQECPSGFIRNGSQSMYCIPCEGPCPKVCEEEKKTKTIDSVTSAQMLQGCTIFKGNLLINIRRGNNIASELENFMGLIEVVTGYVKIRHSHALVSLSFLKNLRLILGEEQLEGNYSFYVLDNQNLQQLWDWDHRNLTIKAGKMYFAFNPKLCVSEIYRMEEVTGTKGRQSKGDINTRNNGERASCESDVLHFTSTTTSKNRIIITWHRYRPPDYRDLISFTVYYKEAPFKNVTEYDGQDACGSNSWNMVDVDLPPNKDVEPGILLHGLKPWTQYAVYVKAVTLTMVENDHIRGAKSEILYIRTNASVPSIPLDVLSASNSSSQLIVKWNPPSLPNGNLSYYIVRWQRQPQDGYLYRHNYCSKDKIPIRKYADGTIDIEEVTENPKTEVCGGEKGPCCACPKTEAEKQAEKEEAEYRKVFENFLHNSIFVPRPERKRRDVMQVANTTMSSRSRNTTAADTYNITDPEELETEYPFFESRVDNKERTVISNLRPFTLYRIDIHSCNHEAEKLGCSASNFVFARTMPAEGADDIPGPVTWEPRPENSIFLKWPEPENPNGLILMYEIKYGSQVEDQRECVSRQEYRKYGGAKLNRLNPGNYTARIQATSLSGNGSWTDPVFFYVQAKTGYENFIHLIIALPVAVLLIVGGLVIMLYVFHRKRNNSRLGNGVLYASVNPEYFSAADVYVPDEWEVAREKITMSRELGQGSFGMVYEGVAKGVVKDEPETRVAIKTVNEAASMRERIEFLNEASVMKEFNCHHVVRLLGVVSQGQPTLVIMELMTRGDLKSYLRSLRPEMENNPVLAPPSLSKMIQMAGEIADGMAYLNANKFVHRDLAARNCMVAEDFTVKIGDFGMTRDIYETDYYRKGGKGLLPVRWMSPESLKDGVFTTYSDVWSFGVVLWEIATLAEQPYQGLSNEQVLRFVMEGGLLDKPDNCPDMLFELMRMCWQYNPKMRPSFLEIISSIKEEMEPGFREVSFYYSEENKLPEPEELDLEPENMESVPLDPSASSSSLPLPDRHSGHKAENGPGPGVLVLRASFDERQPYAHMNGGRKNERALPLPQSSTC
InsR, sequence (P06213 28-1382, species assumed): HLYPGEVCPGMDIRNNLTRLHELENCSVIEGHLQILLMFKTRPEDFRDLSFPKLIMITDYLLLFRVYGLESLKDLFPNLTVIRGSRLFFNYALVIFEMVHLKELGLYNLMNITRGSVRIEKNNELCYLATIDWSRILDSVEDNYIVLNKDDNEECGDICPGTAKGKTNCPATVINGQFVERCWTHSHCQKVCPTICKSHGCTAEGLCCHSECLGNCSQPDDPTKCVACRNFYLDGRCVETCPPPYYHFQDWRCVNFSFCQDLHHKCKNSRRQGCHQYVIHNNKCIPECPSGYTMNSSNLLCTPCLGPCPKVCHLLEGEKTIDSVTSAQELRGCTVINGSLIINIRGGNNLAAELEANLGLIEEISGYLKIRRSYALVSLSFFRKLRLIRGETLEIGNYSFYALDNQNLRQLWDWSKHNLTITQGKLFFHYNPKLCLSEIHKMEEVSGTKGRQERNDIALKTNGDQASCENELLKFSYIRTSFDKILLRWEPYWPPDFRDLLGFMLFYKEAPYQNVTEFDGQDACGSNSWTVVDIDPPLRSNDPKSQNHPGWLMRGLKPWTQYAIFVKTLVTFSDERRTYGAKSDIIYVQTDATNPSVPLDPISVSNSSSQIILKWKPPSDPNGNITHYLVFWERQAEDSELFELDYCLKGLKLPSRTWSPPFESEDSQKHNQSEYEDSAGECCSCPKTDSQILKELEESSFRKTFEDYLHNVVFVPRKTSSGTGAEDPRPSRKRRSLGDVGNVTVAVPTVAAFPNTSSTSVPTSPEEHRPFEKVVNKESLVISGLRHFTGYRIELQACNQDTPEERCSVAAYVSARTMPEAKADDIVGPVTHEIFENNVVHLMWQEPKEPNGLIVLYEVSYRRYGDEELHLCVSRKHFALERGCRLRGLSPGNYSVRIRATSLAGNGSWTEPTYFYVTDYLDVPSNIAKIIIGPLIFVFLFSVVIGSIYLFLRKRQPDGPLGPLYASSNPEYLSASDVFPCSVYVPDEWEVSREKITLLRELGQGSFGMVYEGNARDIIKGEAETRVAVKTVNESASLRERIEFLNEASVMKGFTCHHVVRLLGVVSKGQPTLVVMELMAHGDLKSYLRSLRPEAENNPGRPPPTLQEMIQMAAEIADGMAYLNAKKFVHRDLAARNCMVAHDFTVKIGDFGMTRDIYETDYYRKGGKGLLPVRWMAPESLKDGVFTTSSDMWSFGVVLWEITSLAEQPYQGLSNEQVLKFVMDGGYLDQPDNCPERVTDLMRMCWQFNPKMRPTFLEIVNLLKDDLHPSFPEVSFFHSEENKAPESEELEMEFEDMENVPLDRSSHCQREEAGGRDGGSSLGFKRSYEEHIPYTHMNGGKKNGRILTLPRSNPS
KDR, sequence (P35968 20-1356, species assumed): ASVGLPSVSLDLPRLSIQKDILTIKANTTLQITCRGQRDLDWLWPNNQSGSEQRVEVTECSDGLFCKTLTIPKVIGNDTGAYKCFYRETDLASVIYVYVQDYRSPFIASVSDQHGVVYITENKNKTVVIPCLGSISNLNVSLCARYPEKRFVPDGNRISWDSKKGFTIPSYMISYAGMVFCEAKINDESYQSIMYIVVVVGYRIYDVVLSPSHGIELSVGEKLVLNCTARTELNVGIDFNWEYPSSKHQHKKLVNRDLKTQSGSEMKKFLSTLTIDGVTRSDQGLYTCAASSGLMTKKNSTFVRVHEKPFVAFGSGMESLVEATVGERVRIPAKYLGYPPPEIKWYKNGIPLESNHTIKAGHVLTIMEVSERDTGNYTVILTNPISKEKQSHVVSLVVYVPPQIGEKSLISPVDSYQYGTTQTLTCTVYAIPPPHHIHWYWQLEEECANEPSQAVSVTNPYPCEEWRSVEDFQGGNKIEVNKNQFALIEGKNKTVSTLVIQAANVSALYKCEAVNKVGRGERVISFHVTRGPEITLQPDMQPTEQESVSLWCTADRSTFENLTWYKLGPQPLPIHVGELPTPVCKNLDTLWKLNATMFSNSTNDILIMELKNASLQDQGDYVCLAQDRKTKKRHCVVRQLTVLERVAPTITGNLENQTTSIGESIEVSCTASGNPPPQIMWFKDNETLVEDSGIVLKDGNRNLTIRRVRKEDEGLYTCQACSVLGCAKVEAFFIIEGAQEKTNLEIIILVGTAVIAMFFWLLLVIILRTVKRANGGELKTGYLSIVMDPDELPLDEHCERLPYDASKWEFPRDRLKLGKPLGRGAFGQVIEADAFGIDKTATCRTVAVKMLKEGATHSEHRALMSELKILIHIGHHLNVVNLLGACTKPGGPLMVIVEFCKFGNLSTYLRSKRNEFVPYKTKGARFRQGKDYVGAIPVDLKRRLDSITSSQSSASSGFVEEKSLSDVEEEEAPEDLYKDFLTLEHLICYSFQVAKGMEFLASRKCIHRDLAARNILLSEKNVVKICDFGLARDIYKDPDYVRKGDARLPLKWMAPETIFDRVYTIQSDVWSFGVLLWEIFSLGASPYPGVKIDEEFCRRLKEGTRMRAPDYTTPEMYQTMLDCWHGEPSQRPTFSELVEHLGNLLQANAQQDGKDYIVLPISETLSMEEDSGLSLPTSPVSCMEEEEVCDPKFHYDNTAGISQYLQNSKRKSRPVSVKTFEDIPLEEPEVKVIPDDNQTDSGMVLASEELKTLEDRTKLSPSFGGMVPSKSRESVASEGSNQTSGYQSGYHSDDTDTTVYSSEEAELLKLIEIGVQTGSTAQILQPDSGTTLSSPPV

## Nc1ncnc2c1c(-c1cccc(OC[C@@H]3CCCO3)c1F)cn2[C@H]1C[C@@H](CN2CC[S+]([O-])CC2)C1 [Example 6, 5-{2-Fluoro-3-[(S)-1-(tetrahydro-furan-2-yl)methoxy]-phenyl}-7-[cis-3-(1-oxo-thiomorpholin-4-ylmethyl)-cyclobutyl]-7H-pyrrolo[2,3-d]pyrimidin-4-ylamine]
[1]
  IC50: 0.0038 µM
[2]; [27]
  IC50: 0.039 µM
[3]
  IC50: 8.3 µM
[4]
  IC50: 8.6 µM
[5]
  IC50: > 10 µM
[6]
  IC50: 5.7 µM
[7]; [28]
  IC50: 3.4 µM
[8]
  IC50: > 10 µM
[9]
  IC50: > 10 µM
[10]
  IC50: > 10 µM
[11]
  IC50: > 10 µM
[12]
  IC50: > 10 µM
[13]
  IC50: > 10 µM
[14]
  IC50: 0.77 µM
[15]
  IC50: > 10 µM
[16]
  IC50: > 10 µM
[17]
  IC50: > 10 µM
[18]
  IC50: > 10 µM
[19]
  IC50: > 10 µM
[20]
  IC50: > 10 µM
[21]
  IC50: > 10 µM
[22]
  IC50: 0.01 µM
[23]
  IC50: > 30 µM

## [2H]C1([2H])C([2H])([2H])C2(COc3cccc(-c4cn([C@H]5C[C@@H](N6CC[S+]([O-])CC6)C5)c5ncnc(N)c45)c3F)OC1([2H])C([2H])([2H])C2([2H])[2H] [Example 18, d9-5-[2-Fluoro-3-(7-oxa-bicyclo[2.2.1]hept-1-ylmethoxy)-phenyl]-7-[cis-3-(1-oxo-thiomorpholin-4-yl)-cyclobutyl]-7H-pyrrolo[2,3-d]pyrimidin-4-ylamine]
[1]
  IC50: 0.015 µM
[2]; [27]
  IC50: 0.043 µM
[3]
  IC50: > 10 µM
[4]
  IC50: > 10 µM
[5]
  IC50: > 10 µM
[6]
  IC50: > 10 µM
[7]; [28]
  IC50: > 10 µM
[8]
  IC50: > 10 µM
[9]
  IC50: > 10 µM
[10]
  IC50: > 10 µM
[11]
  IC50: > 10 µM
[12]
  IC50: > 10 µM
[13]
  IC50: > 10 µM
[14]
  IC50: > 10 µM
[15]
  IC50: > 10 µM
[16]
  IC50: > 10 µM
[17]
  IC50: > 10 µM
[18]
  IC50: > 10 µM
[19]
  IC50: > 10 µM
[20]
  IC50: > 10 µM
[21]
  IC50: > 10 µM
[22]
  IC50: 0.004 µM
[23]
  IC50: > 30 µM

## Nc1ncnc2c1c(-c1cccc(OCc3ccccc3)c1)cn2[C@H]1C[C@@H](CN2CCC2)C1 [WO02/092599, ex. 102]
[24]
  IC50: > 10 µM
[2]; metabolite comparison table, read-out: InsR IC50
  IC50: 0.23 µM
[25]
  IC50: > 10 µM
[7]; metabolite comparison table, read-out: RET IC50
  IC50: 4.4 µM
[26]
  IC50: > 10 µM
